Reference: patent US8435997B2, “Cysteine prodrugs to treat schizophrenia and drug addiction” (Marquette University, priority 2007, dated 2013)

Legend:
[1] = system: extracellular glutamate in the prefrontal cortex; test: Extracellular glutamate in the prefrontal cortex compared to baseline after prodrug administration; assay type: in vivo; conditions: rats; compound 7 30 mg/kg po (N=1) versus N-acetylcysteine 60 mg/kg IP (N=4); FIG. 1
Experimental: FIG. 1 is a bar graph depicting extracellular glutamate in the prefrontal cortex (compared to baseline) following administration of cysteine prodrugs N-acetylcysteine (60 mg/kg, IP; N=4) or compound 7 (30 mg/kg, po; N=1) in rats. […] Compound 7 was given to the animal orally, and thereby subjected to potential first-pass metabolism. Conversely, N-acetylcysteine was given IP in order to avoid extensive first pass metabolism that would occur following oral administration. Thus, compound 7 produced a larger relative increase in glutamate in rats as compared to NAC even though NAC was given in its preferred route of administration and at twice the concentration.

[2] = system: PCP-evoked deficits in pre-pulse inhibition; test: Prepulse inhibition of startle response, phencyclidine (PCP)-induced sensorimotor gating deficits; assay type: in vivo, rats; conditions: for sensorimotor gating (inhibition of startle response by pre-pulse) after PCP: rats, 30 mg/kg po, 60 min prior to PCP 1 mg/kg SC, pre-pulse 2-15 db above background, FIG. 2
[3] = system: cocaine-induced reinstatement; test: Extinction/reinstatement paradigm, cocaine-induced reinstatement of lever pressing; assay type: in vivo; conditions: rats, cocaine 10 mg/kg IP
Excerpt: The extinction/reinstatement paradigm represents one of the most common paradigms used to screen for potential anticraving properties of novel pharmacotherapies. In the present experiments, rats were implanted with indwelling jugular catheters with an external port affixed slightly posterior to the rat's shoulder blades. Tubing is used to connect a syringe of cocaine to the external port of the indwelling catheter. Rats are then placed into standard operant chambers (Med Associates) and permitted to press a lever for an infusion of cocaine (0.5 mg/kg/200 microL, IV). Once behavior is stable, rats are permitted at least eleven 2-hr sessions to self-administer cocaine. Afterwards, the cocaine solution is replaced with saline in order to extinguish lever pressing. Once responding decreases to 10 or fewer lever presses/2 hr sessions for 3 out of 4 daily sessions, rats are tested for reinstatement (relapse). To do this, rats are placed into the operant chamber and vehicle or a cysteine/cystine prodrug (1-60 mg/kg, p.o.; N=2-12) is administered. Afterwards, rats then receive an injection of cocaine (10 mg/kg, IP). Responding is then assessed for 120 min.

`O=C1CNC(=O)[C@H](CSSC[C@H]2NC(=O)CNC2=O)N1` [Compound 7, Bis[2,5-Piperazinedione, 3-(mercaptomethyl)-]] was tested, and the “peak increase in extracellular glutamate in the prefrontal cortex (compared to baseline)” value [1] was “much larger peak increase in glutamate” and the “sensorimotor gating (inhibition of startle response by pre-pulse) after PCP” value [2] was “significant improvement in sensorimotor gating relative to PCP controls and rats receiving NAC+PCP”.

For `CC(=O)N[C@@H](CS)C(=O)O` [N-acetylcysteine], the “restoration of inhibition of a startle response after PCP” value ([2]; infused directly into the rodent prefrontal cortex, 0-100 microM, FIG. 5) was “significantly restored inhibition of a startle response at each concentration tested”, the “restoration of sensorimotor gating after PCP” value ([2]; intraperitoneal injection 60 min prior to testing, three prepulse stimulus intensities, FIG. 4) was “failed to significantly restore sensorimotor gating at any of the three prepulse stimulus intensities” and the “attenuation of deficits in prepulse inhibition produced by phencyclidine” value ([2]; oral administration 60 min prior to testing, FIG. 3) was “fails to significantly attenuate deficits in prepulse inhibition”. The “sensorimotor gating (inhibition of startle response by pre-pulse) after PCP” value [2] was “trend toward improved sensorimotor gating (p=0.1)”, the “cocaine-induced reinstatement (responding)” value (shortened to “cocaine-induced reinstatement”) ([3]; 30 and 60 mg/kg IP, responding over 120 min, FIG. 8) was “significant reduction in cocaine-induced reinstatement” and the “cocaine-induced reinstatement” value ([3]; given orally, FIG. 9) was “less effective when given orally”.

With `CCOC1=NC(CSSCC2N=C(OCC)CN=C2OCC)C(OCC)=NC1` (centres unmarked) [Compound 6, Bis[(3,6-Diethoxy-2,5-dihydro-pyrazin-2-yl)-methanethiol]] the “restoration of sensorimotor gating after PCP” value ([2]; oral administration (0-1 mg/kg) 60 min prior to testing, prepulse 2, 6, 15 dB above background, FIG. 7) was “significantly restored sensorimotor gating at the highest prepulse intensity”.

With `CCOC1=NC(CS)C(OCC)=NC1` (centres unmarked) [Compound 5, (3,6-Diethoxy-2,5-dihydro-pyrazin-2-yl)-methanethiol] the “sensorimotor gating as assessed by inhibition of a startle response after PCP” value ([2]; 1 mg/kg orally 60 min prior to testing, PCP 0-1.25 mg/kg SC, FIG. 6) was “significant increase in sensorimotor gating” and the “cocaine-induced reinstatement” value ([3]; 1 mg/kg p.o., FIG. 9) was “sufficient to block cocaine-induced reinstatement”.
